Assay results as given in ChEMBL document CHEMBL1131412, “N-[2-[4-(4-Chlorophenyl)piperazin-1-yl]ethyl]-3-methoxybenzamide: a potent and selective dopamine D4 ligand” (J Med Chem, 1998).

What was measured:
D(4) dopamine receptor [1] = target: T1, D(4) dopamine receptor (Homo sapiens, UniProt P21917); assay: In vitro binding affinity at human cloned Dopamine receptor D4.2 by [3H]YM-09151-2 displacement.
T1 sequence (P21917 whole entry): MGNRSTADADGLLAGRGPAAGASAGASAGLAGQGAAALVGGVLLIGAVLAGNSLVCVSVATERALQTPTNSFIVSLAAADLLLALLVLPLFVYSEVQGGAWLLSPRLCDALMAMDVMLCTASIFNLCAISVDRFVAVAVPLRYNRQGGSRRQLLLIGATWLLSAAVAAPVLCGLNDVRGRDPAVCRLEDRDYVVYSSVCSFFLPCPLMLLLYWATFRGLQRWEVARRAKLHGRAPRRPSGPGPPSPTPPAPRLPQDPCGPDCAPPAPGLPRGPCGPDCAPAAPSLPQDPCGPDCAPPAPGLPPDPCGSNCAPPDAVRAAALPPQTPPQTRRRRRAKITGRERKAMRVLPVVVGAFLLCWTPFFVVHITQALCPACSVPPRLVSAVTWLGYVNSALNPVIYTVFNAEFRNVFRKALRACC

D(4) dopamine receptor [2] = target: T1, D(4) dopamine receptor; assay: In vitro binding affinity was measured at the cloned human Dopamine receptor D4.2 using [3H]YM-09151-2 as radioligand.
[3] = target: T2, Adrenergic receptor alpha-1 (Rattus norvegicus, UniProt P15823+P23944+P43140); assay: Binding affinity was measured at the Alpha-1 adrenergic receptor using [3H]prazosin as radioligand in rat brain cortex membrane.; assay type: cell membranes
T2 sequence (P15823 whole entry): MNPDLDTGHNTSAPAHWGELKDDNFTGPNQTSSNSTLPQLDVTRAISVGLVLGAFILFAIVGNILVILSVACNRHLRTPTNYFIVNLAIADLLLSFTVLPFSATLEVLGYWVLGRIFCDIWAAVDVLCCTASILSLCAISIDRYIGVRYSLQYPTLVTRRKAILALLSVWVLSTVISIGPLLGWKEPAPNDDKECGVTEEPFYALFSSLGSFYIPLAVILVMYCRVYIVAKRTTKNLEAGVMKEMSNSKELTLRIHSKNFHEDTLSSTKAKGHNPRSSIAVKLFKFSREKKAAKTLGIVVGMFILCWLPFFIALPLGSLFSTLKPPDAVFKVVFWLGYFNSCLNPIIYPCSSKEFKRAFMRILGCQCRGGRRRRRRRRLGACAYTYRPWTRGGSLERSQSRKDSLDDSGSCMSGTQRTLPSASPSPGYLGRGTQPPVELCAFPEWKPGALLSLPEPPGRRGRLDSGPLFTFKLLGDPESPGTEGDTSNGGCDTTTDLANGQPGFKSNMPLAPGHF
T2 sequence (P23944 whole entry): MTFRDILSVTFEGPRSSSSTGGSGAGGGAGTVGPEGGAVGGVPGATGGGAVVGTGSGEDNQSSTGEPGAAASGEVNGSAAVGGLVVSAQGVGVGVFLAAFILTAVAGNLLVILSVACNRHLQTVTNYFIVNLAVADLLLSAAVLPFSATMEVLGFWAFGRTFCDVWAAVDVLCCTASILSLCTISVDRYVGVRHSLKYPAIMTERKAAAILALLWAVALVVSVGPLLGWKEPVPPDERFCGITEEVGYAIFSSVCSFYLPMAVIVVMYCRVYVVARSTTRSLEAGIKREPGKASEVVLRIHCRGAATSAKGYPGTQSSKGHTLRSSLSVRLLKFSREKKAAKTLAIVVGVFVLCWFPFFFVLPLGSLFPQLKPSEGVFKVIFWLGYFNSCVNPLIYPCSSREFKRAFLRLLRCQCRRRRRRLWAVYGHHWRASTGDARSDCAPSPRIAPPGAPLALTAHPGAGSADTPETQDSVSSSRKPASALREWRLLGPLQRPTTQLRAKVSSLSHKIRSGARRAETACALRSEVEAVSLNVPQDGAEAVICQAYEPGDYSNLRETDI
T2 sequence (P43140 whole entry): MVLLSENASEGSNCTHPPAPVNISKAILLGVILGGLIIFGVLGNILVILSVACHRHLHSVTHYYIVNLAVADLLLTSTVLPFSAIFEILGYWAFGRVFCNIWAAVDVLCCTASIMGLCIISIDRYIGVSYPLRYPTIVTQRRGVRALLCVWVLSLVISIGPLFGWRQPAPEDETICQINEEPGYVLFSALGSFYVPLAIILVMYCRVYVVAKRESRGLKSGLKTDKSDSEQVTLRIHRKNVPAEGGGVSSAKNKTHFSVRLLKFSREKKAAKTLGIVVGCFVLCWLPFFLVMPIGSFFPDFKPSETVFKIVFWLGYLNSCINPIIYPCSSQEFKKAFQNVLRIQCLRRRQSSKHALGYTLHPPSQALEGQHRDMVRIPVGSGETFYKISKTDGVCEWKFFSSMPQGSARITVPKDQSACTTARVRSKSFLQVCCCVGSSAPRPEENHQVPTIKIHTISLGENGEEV

[4] = target: T3, 5-hydroxytryptamine receptor 1A (Rattus norvegicus, UniProt P19327); assay: Binding affinity was measured at the serotonin 5-hydroxytryptamine 1A receptor using [3H]8-OH-DPAT as radioligand in rat hippocampal membrane.; assay type: cell membranes, Hippocampus
T3 sequence (P19327 whole entry): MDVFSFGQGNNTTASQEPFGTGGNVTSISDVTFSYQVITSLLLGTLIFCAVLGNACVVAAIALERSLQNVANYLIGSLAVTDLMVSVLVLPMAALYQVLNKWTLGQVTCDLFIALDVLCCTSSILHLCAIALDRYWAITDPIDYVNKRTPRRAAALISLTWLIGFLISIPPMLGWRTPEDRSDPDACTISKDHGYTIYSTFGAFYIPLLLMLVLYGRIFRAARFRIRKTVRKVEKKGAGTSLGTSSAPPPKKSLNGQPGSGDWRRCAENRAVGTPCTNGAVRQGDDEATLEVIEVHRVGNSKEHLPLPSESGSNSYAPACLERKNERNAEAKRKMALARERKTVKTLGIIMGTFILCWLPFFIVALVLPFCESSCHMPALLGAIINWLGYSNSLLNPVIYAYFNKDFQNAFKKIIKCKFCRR

SMILES | IC50 (D(4) dopamine receptor [1]) [nM] | further results
COc1ccc(OC)c(C(=O)NCCN2CCN(c3ccccc3OC)CC2)c1 | 7.8 | –
COc1ccccc1N1CCN(CC(=O)NC2CCc3c(cccc3OC)C2)CC1 (stereo not given) | 850 | –
COc1cccc(C(=O)CCCN2CCN(c3ccccc3OC)CC2)c1 | 3.1 | –
COc1ccccc1C(=O)NCCN1CCN(c2ccccc2OC)CC1 | 4 | –
COc1ccccc1N1CCN(CCNC2=Nc3ccccc3OC2)CC1 | – | Ki (D(4) dopamine receptor [2]): 3 nM
COc1ccccc1N1CCN(Cc2ccn(-c3ccccc3)c2)CC1 | – | Ki (D(4) dopamine receptor [2]): 0.7 nM
COc1cccc(C(=O)NCCN2CCN(Cc3ccccc3OC)CC2)c1 | 30 | –
COc1cccc(C(=O)NCCN2CCN(c3ccc(Cl)cc3)CC2)c1 | 0.057 | IC50 [3]: 270 nM; IC50 [4]: 220 nM
COc1ccc2c(c1)C(CCCN1CCN(c3ccccc3OC)CC1)CCC2 (stereo not given) | 280 | –
COc1cccc(-c2csc(CN3CCN(c4ccccc4OC)CC3)n2)c1 | 740 | –
COc1cccc(C(=O)NCCN2CCN(Cc3ccc(Cl)cc3)CC2)c1 | 70 | –
COc1ccc2c(c1)CC(NC(=O)CN1CCN(c3ccccc3OC)CC1)CC2 (stereo not given) | 470 | –
COc1ccccc1N1CCN(CCC(=O)NC2CCc3c(cccc3OC)C2)CC1 (stereo not given) | 120 | –
